Results published in patent publication US8309056B2, “Method for determination of oxidative stress” (Keio University, priority 2006, dated 2012).

What was measured:
[1] = tested on: glutathione biosynthesis pathway in the liver; test: Metabolites in liver of agent-administered mice vs control mice, measured by CE-TOFMS; format: in vivo
Experimental: Male mice fasted overnight were anesthetized by intraperitoneal injection of pentobarbital sodium (60 mg per Kg body weight). […] The liver (about 300 mg) harvested from mice was immediately plunged into 1 ml of methanol containing internal standards and homogenized to inactivate enzymes and stop increase in metabolism Then, 500 μl of pure water was added and 300 μl of the solution was collected. 200 μl of chloroform was added to the solution, which was then thoroughly mixed. The solution was centrifuged at 15000 rpm at 4° C. for 15 minutes. After left standing, the separated 300 μl-water-methanol phase was centrifugally filtered through an ultrafiltration filter (5 kDa cutoff) to remove proteins. The filtrate was lyophilized and 50 μl of […]® ultrapure water was added thereto prior to CE-MS (CE-TOFMS) analysis. Metabolites having a mass of 1000 or less were comprehensively measured using CE-TOFMS under measuring conditions for cationic metabolites and anionic metabolites. As a capillary, a fused silica capillary having an inner diameter of 50 μm, an outer diameter of 350 μm, and a total length of 100 cm was used. As a buffer, 1 M formic acid (pH is about 1.8) was used. Measurement was performed with an applied voltage of +30 kV and a capillary temperature of 20° C. A sample was injected at 50 mbar for 3 seconds using the pressure method. In TOFMS, the positive ion mode was employed and the ionization, fragmentor, skimmer, and Oct RFV voltages were set at 4 kV, 75 V, 50 V, and 125 V, respectively. Nitrogen was used as a drying gas, which was set at a temperature of 300° C. and a pressure of 10 psig. Methanol solution (50%) was used as a sheath liquid. To this solution, reserpine (m/z 609.2807) was added at 0.5 μM for mass calibration and the solution was delivered at 10μ/min. All the obtained data were automatically calibrated using the mass of reserpine (m/z 609.2807) and methanol adduct ion (m/z 83.0703). As a capillary, SMILE(+) capillary having an inner diameter of 50 μm, an outer diameter of 350 μm, and a total length of 100 cm was used. As a buffer, 50 mM ammonium acetate (pH 8.5) was used. Measurement was performed with an applied voltage of -30 kV and a capillary temperature of 20° C. A sample was injected at 50 mbar for 30 seconds using the pressure method. In TOFMS, the negative ion mode was employed and the ionization, fragmentor, skimmer, and Oct RFV voltage were set at 3.5 kV, 100 V, 50 V, and 200 V, respectively. Nitrogen was used as a drying gas, which was set at a temperature of 300° C. and a pressure of 10 psig. Ammonium acetate (5 mM) in 50% methanol solution was used as a sheath liquid. To this solution, 20 μM PIPES and 1 μM reserpine (m/z 609.2807) was added for mass calibration and was delivered at 10μ/min. All the obtained data were automatically calibrated using the mass of reserpine (m/z 609.2807), monovalent PIPES (m/z 301.0534), and divalent PIPES (m/z 150.0230). […] The extracts were comprehensively and quantitatively analyzed with a capillary electrophoresis-mass spectrometer (CE-MS) or the like. […] Ophthalmic acid preparation was obtained and compared with the unknown substance.

serum metabolites = test: Metabolites in serum of AAP-administered mice vs control mice, measured by CE-TOFMS; format: in vivo
Experimental: Male mice fasted overnight were anesthetized by intraperitoneal injection of pentobarbital sodium (60 mg per Kg body weight). […] Metabolites having a mass of 1000 or less were comprehensively measured using CE-TOFMS under measuring conditions for cationic metabolites and anionic metabolites. As a capillary, a fused silica capillary having an inner diameter of 50 μm, an outer diameter of 350 μm, and a total length of 100 cm was used. As a buffer, 1 M formic acid (pH is about 1.8) was used. Measurement was performed with an applied voltage of +30 kV and a capillary temperature of 20° C. A sample was injected at 50 mbar for 3 seconds using the pressure method. In TOFMS, the positive ion mode was employed and the ionization, fragmentor, skimmer, and Oct RFV voltages were set at 4 kV, 75 V, 50 V, and 125 V, respectively. Nitrogen was used as a drying gas, which was set at a temperature of 300° C. and a pressure of 10 psig. Methanol solution (50%) was used as a sheath liquid. To this solution, reserpine (m/z 609.2807) was added at 0.5 μM for mass calibration and the solution was delivered at 10μ/min. All the obtained data were automatically calibrated using the mass of reserpine (m/z 609.2807) and methanol adduct ion (m/z 83.0703). As a capillary, SMILE(+) capillary having an inner diameter of 50 μm, an outer diameter of 350 μm, and a total length of 100 cm was used. As a buffer, 50 mM ammonium acetate (pH 8.5) was used. Measurement was performed with an applied voltage of -30 kV and a capillary temperature of 20° C. A sample was injected at 50 mbar for 30 seconds using the pressure method. In TOFMS, the negative ion mode was employed and the ionization, fragmentor, skimmer, and Oct RFV voltage were set at 3.5 kV, 100 V, 50 V, and 200 V, respectively. Nitrogen was used as a drying gas, which was set at a temperature of 300° C. and a pressure of 10 psig. Ammonium acetate (5 mM) in 50% methanol solution was used as a sheath liquid. To this solution, 20 μM PIPES and 1 μM reserpine (m/z 609.2807) was added for mass calibration and was delivered at 10μ/min. […]

[2] = 2 hours after administration, vs control mice
[3] = at 1 and 2 hours after administration (time course)
[4] = time course 1-24 hours after administration

## CC(=O)Nc1ccc(O)cc1 [AAP, Acetaminophen]
[1]; [2]
  GSH in liver: Dramatically decreased
  all the substances in the glutathione biosynthesis pathway in the liver: decrease
  ophthalmic acid in liver: increase
  oxidized glutathione (GSSG) in liver: Dramatically decreased
  γ-Glu-2-aminobutyric acid (γ-Glu-2AB) in liver: increase
[1]; [3]
  GSH in liver: rapidly decreased
  ophthalmic acid in liver: dramatically increased
[1]; [4]
  GSSH in liver: a behavior similar to that of GSH in liver
Serum metabolites; [3]
  ophthalmic acid in serum: dramatically increased
Serum metabolites; [4]
  GSH in serum: not detected
  GSSH in serum: a behavior similar to that of GSH in liver

## CCCCS(=N)(=O)CCC(N)C(=O)O (stereo not drawn) [BSO, buthionine sulfoximine]
[1]; [2]
  GSH in liver: remarkably decreased
  ophthalmic acid in liver: remarkably decreased
  γ-Glu-2-aminobutyric acid (γ-Glu-2AB) in liver: remarkably decreased
  γ-Glu-Cys in liver: remarkably decreased
